Measurements published in patent US20260201008A1, “SECRETIN-DERIVED GLP1R SELECTIVE AGONISTS” (GUBRA A/S, priority 2023, published 2026).
Numbered stars: 1 amine (or outer) side, 2 acyl side, 3 side chain; on linkers, the order of the positions; unused ones are H or OH. Square brackets hold non-standard residues; d marks the D form. Side chains are listed from the residue outwards. Peptide text beside a SMILES is read from it. * marks the point of attachment. C20 diacid = O=C(O)CCCCCCCCCCCCCCCCCCC(=O)*; γGlu = O=C(O)[C@H](CCC(=O)[*:2])N[*:1]; AEEA = NCCOCCOCC(=O)O; Aib = CC(C)(N)C(=O)O

Assays:
[1] = Turbidity of crude library peptides (absorbance at 600 nm); type: physicochemical; conditions: Physical stability of peptides
In short: (§1)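 Values reflect mean ThT emission (ex 450, em 480 nm) over 72 h at 40° C, read every 10 min after 5 min shaking at 700 rpm, plus a single initial absorbance at 600 nm for turbidity. Peptides were at 267 μM, pH 4.0 acetate or pH 7.0 phosphate (50 mM), with 4 μM ThT.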

[2] = Fibril formation of crude library peptides (Thioflavin T); type: physicochemical; set-up: key: average ThT fluorescence emission at 480 nm (ex 450 nm), raw units; conditions: Physical stability of peptides
In short: as §1

[3] = target: GLP1R (Homo sapiens, UniProt P43220); experiment: hGLP1R potency, cAMP accumulation in CHO-K1 cells stably overexpressing hGLP1R; type: cell-based; set-up: host or cells: CHO-K1; conditions: for EC50: cAMP accumulation, CHO-K1 cells overexpressing hGLP1R, read-out: hGLP1R pEC50 (converted); for SCTR EC50/GLP1R EC50 ratio: selectivity for hGLP1R over hSCTR, cAMP accumulation in CHO-K1 cells
GLP1R, sequence (P43220 24-463): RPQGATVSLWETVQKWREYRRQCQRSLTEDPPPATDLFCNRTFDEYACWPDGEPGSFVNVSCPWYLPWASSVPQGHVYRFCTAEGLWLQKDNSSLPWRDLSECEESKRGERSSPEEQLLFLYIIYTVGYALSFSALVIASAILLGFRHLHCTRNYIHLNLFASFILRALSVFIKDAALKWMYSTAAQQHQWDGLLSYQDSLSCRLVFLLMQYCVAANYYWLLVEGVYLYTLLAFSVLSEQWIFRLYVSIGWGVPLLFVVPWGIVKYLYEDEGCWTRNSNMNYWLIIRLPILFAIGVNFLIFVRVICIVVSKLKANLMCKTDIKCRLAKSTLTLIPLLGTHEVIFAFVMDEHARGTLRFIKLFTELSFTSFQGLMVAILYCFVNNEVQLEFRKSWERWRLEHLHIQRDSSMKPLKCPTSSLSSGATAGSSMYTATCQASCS
In short: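 Potency reflects cAMP accumulation measured by time-resolved fluorescence energy transfer after a 30 min room-temperature stimulation in IBMX-containing (0.5 mM) DPBS with casein. Purified peptides were tested in duplicate over eleven threefold dilutions, and EC50 was obtained from sigmoid concentration-response fitting.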

[4] = target: SCTR (Homo sapiens, UniProt P47872); experiment: hSCTR potency, cAMP accumulation in CHO-K1 cells stably overexpressing hSCTR; type: cell-based; set-up: alternatively Euroscreen ES-712-AF; FAST-0161L; host or cells: CHO-K1; conditions: cAMP accumulation, CHO-K1 cells overexpressing hSCTR; read-out: hSCTR pEC50 (converted)
SCTR, sequence (P47872 23-440): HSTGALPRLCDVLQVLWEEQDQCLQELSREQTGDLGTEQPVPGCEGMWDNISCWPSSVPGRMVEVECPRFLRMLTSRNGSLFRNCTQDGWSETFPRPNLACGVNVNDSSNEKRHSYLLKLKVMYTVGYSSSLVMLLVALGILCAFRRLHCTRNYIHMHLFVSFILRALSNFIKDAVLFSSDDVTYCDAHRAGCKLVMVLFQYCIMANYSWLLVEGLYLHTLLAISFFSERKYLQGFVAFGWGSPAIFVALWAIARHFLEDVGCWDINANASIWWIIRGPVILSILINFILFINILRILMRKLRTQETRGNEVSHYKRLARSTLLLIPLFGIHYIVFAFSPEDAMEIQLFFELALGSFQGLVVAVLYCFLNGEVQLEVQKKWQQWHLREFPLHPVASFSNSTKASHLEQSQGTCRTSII
In short: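 Potency reflects cAMP accumulation after 30 min agonist exposure at room temperature in hSCTR-expressing CHO-K1 cells, with 0.5 mM IBMX present to block phosphodiesterase. EC50 was derived by nonlinear regression.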

Turbidity (pH 7) [1]	Fibril formation [2]	EC50 [3] [nM]	SCTR EC50/GLP1R EC50 ratio [3]	EC50 [4] [nM]	SMILES
0.15	3449	0.2	10257	2000	CC[C@H](C)[C@H](NC(=O)[C@H](Cc1ccccc1)NC(=O)[C@H](CCCNC(=N)N)NC(=O)[C@H](CCC(N)=O)NC(=O)[C@H](CC(C)C)NC(=O)[C@H](C)NC(=O)[C@H](C)NC(=O)CNC(=O)[C@H](CCC(=O)O)NC(=O)[C@H](CC(C)C)NC(=O)[C@H](CC(C)C)NC(=O)[C@@H](NC(=O)[C@H](CO)NC(=O)C(C)(C)NC(=O)[C@H](CC(=O)O)NC(=O)[C@H](CO)NC(=O)[C@@H](NC(=O)[C@H](Cc1ccccc1)NC(=O)[C@@H](NC(=O)CNC(=O)[C@H](CCC(=O)O)NC(=O)C(C)(C)NC(=O)[C@@H](N)Cc1c[nH]cn1)[C@@H](C)O)[C@@H](C)O)C(C)C)C(=O)N[C@@H](CCC(N)=O)C(=O)N[C@@H](Cc1c[nH]c2ccccc12)C(=O)N[C@@H](CC(C)C)C(=O)N[C@H](C(N)=O)C(C)C [compound 110] (H-H[Aib]EGTFTSD[Aib]SVLLEGAALQRFIQWLV-NH2)
0.24	26712	0.0316	70974	2000	CC[C@H](C)[C@H](NC(=O)[C@H](Cc1ccccc1)NC(=O)[C@H](CCCNC(=N)N)NC(=O)[C@H](CCC(N)=O)NC(=O)[C@H](CC(C)C)NC(=O)[C@H](C)NC(=O)[C@H](C)NC(=O)CNC(=O)[C@H](CCC(=O)O)NC(=O)[C@H](CC(C)C)NC(=O)[C@H](CC(C)C)NC(=O)[C@H](Cc1ccccc1)NC(=O)[C@H](CO)NC(=O)C(C)(C)NC(=O)[C@H](CC(=O)O)NC(=O)[C@H](CO)NC(=O)[C@@H](NC(=O)[C@H](Cc1ccccc1)NC(=O)[C@@H](NC(=O)CNC(=O)[C@H](CCC(=O)O)NC(=O)C(C)(C)NC(=O)[C@@H](N)Cc1c[nH]cn1)[C@@H](C)O)[C@@H](C)O)C(=O)N[C@@H](CCC(N)=O)C(=O)N[C@@H](Cc1c[nH]c2ccccc12)C(=O)N[C@@H](CC(C)C)C(=O)N[C@H](C(N)=O)C(C)C [compound 111] (H-H[Aib]EGTFTSD[Aib]SFLLEGAALQRFIQWLV-NH2)
0.29	93630	0.0158	164097	2510	CC[C@H](C)[C@H](NC(=O)[C@H](Cc1ccccc1)NC(=O)[C@H](CCCNC(=N)N)NC(=O)[C@H](CCC(N)=O)NC(=O)[C@H](CC(C)C)NC(=O)[C@H](C)NC(=O)[C@H](C)NC(=O)CNC(=O)[C@H](CCC(=O)O)NC(=O)[C@H](CC(C)C)NC(=O)[C@H](CC(C)C)NC(=O)[C@H](Cc1ccc(O)cc1)NC(=O)[C@H](CO)NC(=O)[C@@H](NC(=O)[C@H](CC(=O)O)NC(=O)[C@H](CO)NC(=O)[C@@H](NC(=O)[C@H](Cc1ccccc1)NC(=O)[C@@H](NC(=O)CNC(=O)[C@H](CCC(=O)O)NC(=O)C(C)(C)NC(=O)[C@@H](N)Cc1c[nH]cn1)[C@@H](C)O)[C@@H](C)O)[C@@H](C)CC)C(=O)N[C@@H](CCC(N)=O)C(=O)N[C@@H](Cc1c[nH]c2ccccc12)C(=O)N[C@@H](CC(C)C)C(=O)N[C@H](C(N)=O)C(C)C [compound 112] (H-H[Aib]EGTFTSDISYLLEGAALQRFIQWLV-NH2)
0.78	11510	0.0501	1590	79.4	CC[C@H](C)[C@H](NC(=O)[C@H](Cc1ccccc1)NC(=O)[C@H](CCCNC(=N)N)NC(=O)[C@H](CCC(N)=O)NC(=O)[C@H](CC(C)C)NC(=O)[C@H](C)NC(=O)[C@H](C)NC(=O)CNC(=O)[C@H](CCC(=O)O)NC(=O)[C@H](CC(C)C)NC(=O)[C@H](CC(C)C)NC(=O)C(C)(C)NC(=O)[C@H](CO)NC(=O)[C@@H](NC(=O)[C@H](CC(=O)O)NC(=O)[C@H](CO)NC(=O)[C@@H](NC(=O)[C@H](Cc1ccccc1)NC(=O)[C@@H](NC(=O)CNC(=O)[C@H](CCC(=O)O)NC(=O)C(C)(C)NC(=O)[C@@H](N)Cc1c[nH]cn1)[C@@H](C)O)[C@@H](C)O)[C@@H](C)CC)C(=O)N[C@@H](CCC(N)=O)C(=O)N[C@@H](Cc1c[nH]c2ccccc12)C(=O)N[C@@H](CC(C)C)C(=O)N[C@H](C(N)=O)C(C)C [compound 113] (H-H[Aib]EGTFTSDIS[Aib]LLEGAALQRFIQWLV-NH2)
0.08	4292	0.01	3608	39.8	CC[C@H](C)[C@H](NC(=O)[C@H](CC(=O)O)NC(=O)[C@H](CO)NC(=O)[C@@H](NC(=O)[C@H](Cc1ccccc1)NC(=O)[C@@H](NC(=O)CNC(=O)[C@H](CCC(=O)O)NC(=O)C(C)(C)NC(=O)[C@@H](N)Cc1c[nH]cn1)[C@@H](C)O)[C@@H](C)O)C(=O)N[C@@H](CO)C(=O)N[C@@H](Cc1ccc(O)cc1)C(=O)N[C@@H](CC(C)C)C(=O)N[C@@H](CCCCNC(=O)COCCOCCNC(=O)COCCOCCNC(=O)CC[C@H](NC(=O)CCCCCCCCCCCCCCCCCCC(=O)O)C(=O)O)C(=O)N[C@@H](CCC(=O)O)C(=O)N[C@@H](CCC(=O)O)C(=O)N[C@@H](C)C(=O)NC(C)(C)C(=O)N[C@@H](CC(C)C)C(=O)N[C@@H](CCC(N)=O)C(=O)N[C@@H](CCCNC(=N)N)C(=O)N[C@@H](Cc1ccccc1)C(=O)N[C@@H](CC(C)C)C(=O)N[C@@H](CCC(=O)O)C(=O)N[C@@H](Cc1c[nH]cn1)C(=O)N[C@@H](CC(C)C)C(=O)N[C@H](C(N)=O)C(C)C [compound 114] (H-H[Aib]EGTFTSDISYLK([AEEA-AEEA-γGlu-C20 diacid])EEA[Aib]LQRFLEHLV-NH2)
0.48	6433	0.0398	459	15.8	CC[C@H](C)[C@H](NC(=O)[C@H](Cc1ccccc1)NC(=O)[C@H](CCCNC(=N)N)NC(=O)[C@H](CCC(N)=O)NC(=O)[C@H](CC(C)C)NC(=O)[C@H](C)NC(=O)[C@H](C)NC(=O)CNC(=O)[C@H](CCC(=O)O)NC(=O)[C@H](CC(C)C)NC(=O)[C@H](CC(C)C)NC(=O)[C@H](CCCNC(=N)N)NC(=O)[C@H](CO)NC(=O)[C@@H](NC(=O)[C@H](CC(=O)O)NC(=O)[C@H](CO)NC(=O)[C@@H](NC(=O)[C@H](Cc1ccccc1)NC(=O)[C@@H](NC(=O)CNC(=O)[C@H](CCC(=O)O)NC(=O)C(C)(C)NC(=O)[C@@H](N)Cc1c[nH]cn1)[C@@H](C)O)[C@@H](C)O)[C@@H](C)CC)C(=O)N[C@@H](CCC(N)=O)C(=O)N[C@@H](Cc1c[nH]c2ccccc12)C(=O)N[C@@H](CC(C)C)C(=O)N[C@H](C(N)=O)C(C)C [compound 115] (H-H[Aib]EGTFTSDISRLLEGAALQRFIQWLV-NH2)
0.42	202498	0.0501	1422	79.4	CC[C@H](C)[C@H](NC(=O)[C@H](Cc1ccccc1)NC(=O)[C@H](CCCNC(=N)N)NC(=O)[C@H](CCC(N)=O)NC(=O)[C@H](CC(C)C)NC(=O)[C@H](C)NC(=O)[C@H](C)NC(=O)CNC(=O)[C@H](CCC(=O)O)NC(=O)[C@H](CC(C)C)NC(=O)[C@H](CC(C)C)NC(=O)[C@@H](NC(=O)[C@H](CO)NC(=O)[C@@H](NC(=O)[C@H](CC(=O)O)NC(=O)[C@H](CO)NC(=O)[C@@H](NC(=O)[C@H](Cc1ccccc1)NC(=O)[C@@H](NC(=O)CNC(=O)[C@H](CCC(=O)O)NC(=O)C(C)(C)NC(=O)[C@@H](N)Cc1c[nH]cn1)[C@@H](C)O)[C@@H](C)O)[C@@H](C)CC)C(C)C)C(=O)N[C@@H](CCC(N)=O)C(=O)N[C@@H](Cc1c[nH]c2ccccc12)C(=O)N[C@@H](CC(C)C)C(=O)N[C@H](C(N)=O)C(C)C [compound 116] (H-H[Aib]EGTFTSDISVLLEGAALQRFIQWLV-NH2)
0.50	238242	0.01	19436	200	CC[C@H](C)[C@H](NC(=O)[C@H](Cc1ccccc1)NC(=O)[C@H](CCCNC(=N)N)NC(=O)[C@H](CCC(N)=O)NC(=O)[C@H](CC(C)C)NC(=O)[C@H](C)NC(=O)[C@H](C)NC(=O)CNC(=O)[C@H](CCC(=O)O)NC(=O)[C@H](CC(C)C)NC(=O)[C@H](CC(C)C)NC(=O)[C@H](Cc1ccccc1)NC(=O)[C@H](CO)NC(=O)[C@@H](NC(=O)[C@H](CC(=O)O)NC(=O)[C@H](CO)NC(=O)[C@@H](NC(=O)[C@H](Cc1ccccc1)NC(=O)[C@@H](NC(=O)CNC(=O)[C@H](CCC(=O)O)NC(=O)C(C)(C)NC(=O)[C@@H](N)Cc1c[nH]cn1)[C@@H](C)O)[C@@H](C)O)[C@@H](C)CC)C(=O)N[C@@H](CCC(N)=O)C(=O)N[C@@H](Cc1c[nH]c2ccccc12)C(=O)N[C@@H](CC(C)C)C(=O)N[C@H](C(N)=O)C(C)C [compound 117] (H-H[Aib]EGTFTSDISFLLEGAALQRFIQWLV-NH2)
